{
  "source": "paper PMC11279404",
  "about": "“Discovery of 1H-benzo[d]imidazole-(halogenated)Benzylidenebenzohydrazide Hybrids as Potential Multi-Kinase Inhibitors” (Pharmaceuticals, 2024)",
  "key": {"[1]": {"tested_on": "HCT-116 (human colon cancer cell line)", "assay": "MTT in vitro cytotoxicity, HCT-116", "type": "cell-based"}, "[2]": {"tested_on": "HepG2 (hepatocellular carcinoma cell line)", "assay": "MTT in vitro cytotoxicity, HepG2", "type": "cell-based, human"}, "[3]": {"tested_on": "MCF-7 (mammary gland breast cancer cell line)", "assay": "MTT in vitro cytotoxicity, MCF-7", "type": "cell-based, human"}, "[4]": {"assay": "MTT in vitro cytotoxicity, normal WI-38", "type": "cell-based", "conditions": "human, WI-38 normal lung fibroblast cells, normal cell line, mean ± SD of triplicate"}, "VEGFR2": {"target": "VEGFR2 (Homo sapiens, UniProt P35968)", "sequence (P35968 20-1356)": "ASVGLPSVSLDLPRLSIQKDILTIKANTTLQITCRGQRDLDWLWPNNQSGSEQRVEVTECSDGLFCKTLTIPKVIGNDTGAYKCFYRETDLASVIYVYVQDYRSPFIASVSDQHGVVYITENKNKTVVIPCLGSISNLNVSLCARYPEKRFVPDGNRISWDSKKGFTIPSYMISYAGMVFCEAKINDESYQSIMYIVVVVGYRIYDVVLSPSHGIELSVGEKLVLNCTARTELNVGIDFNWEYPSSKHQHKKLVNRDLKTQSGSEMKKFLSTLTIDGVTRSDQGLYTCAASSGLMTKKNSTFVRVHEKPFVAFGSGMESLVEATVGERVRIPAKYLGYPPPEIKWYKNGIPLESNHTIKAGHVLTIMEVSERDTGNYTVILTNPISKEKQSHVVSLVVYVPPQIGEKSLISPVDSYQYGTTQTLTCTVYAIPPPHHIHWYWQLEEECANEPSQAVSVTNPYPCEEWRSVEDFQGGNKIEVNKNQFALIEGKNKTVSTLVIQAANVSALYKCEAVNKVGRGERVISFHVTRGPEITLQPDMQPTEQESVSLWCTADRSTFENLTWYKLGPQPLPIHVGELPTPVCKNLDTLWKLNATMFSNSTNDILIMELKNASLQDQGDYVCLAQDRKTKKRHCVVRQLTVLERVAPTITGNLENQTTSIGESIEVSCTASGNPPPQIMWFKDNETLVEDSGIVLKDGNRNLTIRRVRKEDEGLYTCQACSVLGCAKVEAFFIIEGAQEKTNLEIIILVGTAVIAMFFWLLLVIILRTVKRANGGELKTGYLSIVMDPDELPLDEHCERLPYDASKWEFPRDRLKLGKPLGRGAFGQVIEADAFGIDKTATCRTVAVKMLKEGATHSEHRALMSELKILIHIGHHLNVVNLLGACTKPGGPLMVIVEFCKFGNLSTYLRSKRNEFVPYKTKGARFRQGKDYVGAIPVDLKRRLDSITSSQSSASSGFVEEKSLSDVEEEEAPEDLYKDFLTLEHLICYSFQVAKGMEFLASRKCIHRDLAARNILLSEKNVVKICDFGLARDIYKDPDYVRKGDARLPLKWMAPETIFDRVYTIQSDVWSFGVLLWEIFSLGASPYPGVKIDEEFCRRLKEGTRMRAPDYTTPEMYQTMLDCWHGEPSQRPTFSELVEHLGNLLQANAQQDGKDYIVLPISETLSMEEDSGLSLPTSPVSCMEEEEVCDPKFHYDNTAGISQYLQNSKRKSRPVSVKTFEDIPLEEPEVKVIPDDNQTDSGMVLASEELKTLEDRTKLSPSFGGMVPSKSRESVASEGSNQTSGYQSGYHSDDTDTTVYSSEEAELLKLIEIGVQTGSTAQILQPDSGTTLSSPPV", "assay": "In vitro protein kinase inhibition, VEGFR2", "type": "biochemical", "conditions": "mean ± SD of triplicate", "text": "[…]. […] […]."}, "HDAC1": {"target": "HDAC1 (Homo sapiens, UniProt Q13547)", "sequence (Q13547 whole entry)": "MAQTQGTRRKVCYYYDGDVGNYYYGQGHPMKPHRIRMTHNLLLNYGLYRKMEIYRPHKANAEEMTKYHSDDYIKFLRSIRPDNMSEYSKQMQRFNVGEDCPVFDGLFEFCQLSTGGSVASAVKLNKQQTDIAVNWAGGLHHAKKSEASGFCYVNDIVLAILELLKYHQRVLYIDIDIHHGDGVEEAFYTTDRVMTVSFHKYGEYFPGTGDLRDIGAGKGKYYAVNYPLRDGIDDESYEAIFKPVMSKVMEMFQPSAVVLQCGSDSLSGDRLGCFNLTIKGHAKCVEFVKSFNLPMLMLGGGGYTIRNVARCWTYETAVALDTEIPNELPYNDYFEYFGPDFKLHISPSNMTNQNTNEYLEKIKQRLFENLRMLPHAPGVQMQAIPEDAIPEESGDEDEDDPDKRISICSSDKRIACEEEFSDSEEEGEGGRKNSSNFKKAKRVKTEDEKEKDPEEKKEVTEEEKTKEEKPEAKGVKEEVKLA", "assay": "In vitro enzyme inhibition, HDAC1", "type": "biochemical", "conditions": "mean ± SD of triplicate; read-out: In Vitro Protein Kinase Inhibition IC50 HDAC1"}, "HepG2 cells [5]": {"tested_on": "HepG2 cells", "assay": "Cell cycle analysis (propidium iodide flow cytometry)", "type": "cell-based, human", "text": "Following the treatment, the cells were stained with propidium iodide and analyzed using flow cytometry to determine the cell cycle phase distribution. […] The quantitative data further substantiated this observation. […] It led to a marked accumulation of cells in the G1 phase, accompanied by a concomitant reduction in the proportion of cells in the S and G2/M phases. The cell cycle arrest effect observed with compound 6i may be a key mechanistic aspect contributing to its anticancer potential. The observed cell cycle arrest at the G1 phase is a common mechanism of action for many anti-cancer agents, as it can prevent cell division and proliferation, ultimately leading to cell cycle arrest and potentially inducing apoptosis or other forms of cell death.\nThe cell cycle distribution index (CDI) is a metric that quantifies the rate of cell proliferation, calculated as CDI = (G2/M + S)/[…], where the values represent the percentages of cells in each phase. In this study, the CDI values for the control and compound 6i-treated HepG2 cells were 0.91 and 0.39, respectively. […] Compound 6i was further evaluated for apoptosis analysis in HepG2 cell lines."}, "HepG2 cells [6]": {"tested_on": "HepG2 cells", "assay": "Annexin-V/propidium iodide double staining apoptosis assay", "type": "cell-based, human", "conditions": "HepG2 cells treated at IC50 concentration for 24 h", "procedure": "To investigate the mode of cell death induced by the synthesized compound 6i, flow cytometry analysis was performed. […] Following the treatment, the cells were double-stained with Annexin V and propidium iodide (PI) to assess the levels of apoptosis and necrosis. The data presented in Table 4 reveal a significant decline in the percentage of viable cells in the compound 6i-treated group (63.93%) compared with the untreated control group (97.58%). […] Additionally, in the late stages of apoptosis, the percentage of apoptotic cells rose from 0.21% in the control group to 9.98% in the compound 6i-treated group. […] The apoptosis levels in the control HepG2 cell lines and the cells treated with compound 6i are shown in the graphical representation provided in Figure 3.\nThe apoptosis effect of compound 6i was studied using a previously reported method."}, "caspase-3": {"tested_on": "caspase-3", "assay": "Apoptotic protein level by ELISA, caspase-3", "type": "cell-based, human", "conditions": "HepG2 cells, ELISA; control 99.904 ± 3.88; mean ± SD of triplicate", "procedure": "(§1) To further elucidate the mechanism by which compound 6i induces cell death, the expression levels of key apoptotic proteins were assessed in the HepG2 cell line. […] Specifically, the levels of the pro-apoptotic proteins caspase-3 and Bax were markedly higher in the compound 6i-treated group compared with the control. […] Additional studies are warranted to elucidate the detailed molecular mechanisms underlying the apoptosis-inducing effects of compound 6i and to assess its therapeutic potential in relevant in vivo models.\n(§2) Apoptotic protein levels for compound 6i were determined using an ELISA technique for caspase-3, BAX, and Bcl-2, applying a previously reported method."}, "Bax": {"tested_on": "Bax", "assay": "Apoptotic protein level by ELISA, Bax", "type": "cell-based, human", "conditions": "HepG2 cells", "procedure": "as §1, §2"}, "Bcl-2": {"tested_on": "Bcl-2", "assay": "Apoptotic protein level by ELISA, Bcl-2", "type": "cell-based, human", "conditions": "HepG2 cells"}, "[7]": {"tested_on": "cancer cell lines (HCT-116, HepG2, MCF-7)", "assay": "MTT in vitro cytotoxicity, summary across the cancer cell line panel", "type": "cell-based", "conditions": "Homo sapiens; summary over HCT-116, HepG2, MCF-7; read-out: IC50 values across the tested cancer cell lines", "procedure": "The cytotoxic activities of compounds 6a-l were assessed using a standard MTT method, which was performed across three different cancer cell line models, namely human colon cancer (HCT-116), hepatocellular carcinoma (HepG2), mammary gland cancer (MCF-7), and normal (WI-38) cell lines. […] […]. Substitution at the 4-position, as in the case of compounds 6d, 6g, and 6j, also seems beneficial, with fluoro (6j) showing the best results. […]. Overall, the cytotoxicity data provide valuable insights into the structure–activity relationships of the synthesized compounds and can guide further optimization efforts to develop potential anticancer agents with improved potency and selectivity.\n. The SI values represent the ratio of the IC50 values for the normal WI-38 cell line compared with the respective cancer cell lines, with higher SI values indicating greater selectivity for the cancer cells over normal cells. […]. The cytotoxic potential of compounds 6a-l was evaluated against a panel of cancer cell lines, including HCT-116, HepG2, and MCF-7, as well as a normal cell line, WI-38, using the reported methodology. The cell lines utilized in this study were obtained from the American Type Culture Collection (ATCC) through the Holding Company for Biological Products and Vaccines (VACSERA) in Cairo, Egypt. These included: 1. A human colon cancer cell line (HCT-116); 2. Hepatocellular carcinoma (HepG2)—a liver cancer cell line; 3. Mammary gland breast cancer (MCF-7); and 4. A human lung fibroblast (WI-38)—a normal cell line."}, "mTOR": {"target": "mTOR (Homo sapiens, UniProt P42345)", "assay": "In vitro enzyme inhibition, mTOR"}, "EGFR": {"target": "EGFR (Homo sapiens, UniProt P00533)", "sequence (P00533 25-1210)": "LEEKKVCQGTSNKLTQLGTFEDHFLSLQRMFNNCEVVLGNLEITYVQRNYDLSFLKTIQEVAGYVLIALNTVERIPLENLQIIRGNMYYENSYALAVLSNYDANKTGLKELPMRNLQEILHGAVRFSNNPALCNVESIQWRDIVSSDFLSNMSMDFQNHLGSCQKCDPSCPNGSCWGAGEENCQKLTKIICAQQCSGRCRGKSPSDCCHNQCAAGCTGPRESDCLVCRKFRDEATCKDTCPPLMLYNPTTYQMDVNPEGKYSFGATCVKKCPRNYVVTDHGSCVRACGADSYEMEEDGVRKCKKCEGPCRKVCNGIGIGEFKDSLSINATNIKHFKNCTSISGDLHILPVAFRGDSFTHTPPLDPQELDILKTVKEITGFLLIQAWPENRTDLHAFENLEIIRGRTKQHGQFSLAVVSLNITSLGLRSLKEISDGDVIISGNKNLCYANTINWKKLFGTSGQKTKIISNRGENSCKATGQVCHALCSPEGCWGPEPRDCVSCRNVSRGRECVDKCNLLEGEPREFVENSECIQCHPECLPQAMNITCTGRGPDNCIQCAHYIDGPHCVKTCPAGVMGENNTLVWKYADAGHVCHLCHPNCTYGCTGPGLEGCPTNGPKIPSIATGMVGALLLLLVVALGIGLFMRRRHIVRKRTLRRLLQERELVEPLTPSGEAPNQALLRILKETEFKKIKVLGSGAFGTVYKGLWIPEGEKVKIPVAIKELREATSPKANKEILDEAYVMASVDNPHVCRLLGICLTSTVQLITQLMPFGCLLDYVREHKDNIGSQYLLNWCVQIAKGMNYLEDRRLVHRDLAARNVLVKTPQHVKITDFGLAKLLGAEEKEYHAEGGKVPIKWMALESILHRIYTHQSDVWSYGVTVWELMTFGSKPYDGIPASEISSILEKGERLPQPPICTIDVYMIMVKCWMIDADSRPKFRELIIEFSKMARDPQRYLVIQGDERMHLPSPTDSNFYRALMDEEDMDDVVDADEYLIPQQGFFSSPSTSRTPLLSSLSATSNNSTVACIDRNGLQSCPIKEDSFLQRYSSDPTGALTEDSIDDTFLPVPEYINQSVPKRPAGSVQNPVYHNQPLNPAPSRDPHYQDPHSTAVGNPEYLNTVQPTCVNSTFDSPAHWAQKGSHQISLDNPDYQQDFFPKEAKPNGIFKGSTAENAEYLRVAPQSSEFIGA", "assay": "In vitro protein kinase inhibition, EGFR"}, "Her2": {"target": "Her2 (Homo sapiens, UniProt P04626)", "sequence (P04626 23-1255)": "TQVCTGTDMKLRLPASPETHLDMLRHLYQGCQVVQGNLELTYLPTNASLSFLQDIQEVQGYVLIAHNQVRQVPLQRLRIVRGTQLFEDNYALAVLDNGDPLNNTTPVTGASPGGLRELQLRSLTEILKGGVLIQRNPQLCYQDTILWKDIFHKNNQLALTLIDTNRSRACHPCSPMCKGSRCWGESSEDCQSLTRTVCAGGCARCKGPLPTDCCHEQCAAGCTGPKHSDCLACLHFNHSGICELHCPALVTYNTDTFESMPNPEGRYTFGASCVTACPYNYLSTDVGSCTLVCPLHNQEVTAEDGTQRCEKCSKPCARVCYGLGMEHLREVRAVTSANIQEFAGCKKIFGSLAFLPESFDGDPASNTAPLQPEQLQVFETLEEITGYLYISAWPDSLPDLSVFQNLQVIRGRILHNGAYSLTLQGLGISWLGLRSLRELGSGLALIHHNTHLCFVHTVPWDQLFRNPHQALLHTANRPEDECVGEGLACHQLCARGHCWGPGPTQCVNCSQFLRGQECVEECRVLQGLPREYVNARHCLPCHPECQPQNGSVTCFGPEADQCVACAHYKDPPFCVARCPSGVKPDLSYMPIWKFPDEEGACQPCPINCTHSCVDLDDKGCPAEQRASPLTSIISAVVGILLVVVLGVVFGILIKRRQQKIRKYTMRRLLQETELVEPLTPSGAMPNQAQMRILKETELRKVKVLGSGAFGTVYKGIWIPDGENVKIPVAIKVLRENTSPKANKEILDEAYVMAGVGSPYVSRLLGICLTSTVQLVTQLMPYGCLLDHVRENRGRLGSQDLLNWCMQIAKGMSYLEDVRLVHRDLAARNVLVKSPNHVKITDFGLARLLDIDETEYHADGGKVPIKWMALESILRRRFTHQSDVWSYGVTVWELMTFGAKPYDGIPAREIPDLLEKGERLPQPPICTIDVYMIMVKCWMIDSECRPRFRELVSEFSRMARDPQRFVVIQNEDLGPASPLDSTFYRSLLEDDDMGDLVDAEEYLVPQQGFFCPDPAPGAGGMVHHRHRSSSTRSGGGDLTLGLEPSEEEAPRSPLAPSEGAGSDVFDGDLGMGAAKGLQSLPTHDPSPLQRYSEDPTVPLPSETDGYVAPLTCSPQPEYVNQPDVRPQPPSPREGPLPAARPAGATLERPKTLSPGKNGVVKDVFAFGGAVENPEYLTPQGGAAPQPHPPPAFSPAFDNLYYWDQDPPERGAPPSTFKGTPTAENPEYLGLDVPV", "assay": "In vitro protein kinase inhibition, Her2"}, "CDK2": {"target": "CDK2 (Homo sapiens, UniProt P24941)", "assay": "In vitro protein kinase inhibition, CDK2"}, "AURKC": {"target": "T1, AURKC (Homo sapiens, UniProt Q9UQB9)", "T1 sequence (Q9UQB9 1-309)": "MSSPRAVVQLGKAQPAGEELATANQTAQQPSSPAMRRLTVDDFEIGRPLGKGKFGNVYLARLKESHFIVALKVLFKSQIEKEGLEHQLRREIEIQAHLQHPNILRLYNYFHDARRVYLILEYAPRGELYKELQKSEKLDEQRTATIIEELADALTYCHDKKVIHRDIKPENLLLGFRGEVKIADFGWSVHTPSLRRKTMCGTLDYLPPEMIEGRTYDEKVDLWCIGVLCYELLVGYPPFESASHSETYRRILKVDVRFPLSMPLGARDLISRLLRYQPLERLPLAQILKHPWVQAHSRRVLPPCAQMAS", "assay": "In vitro protein kinase inhibition, AURKC"}},
  "data": [
    {"smiles": "O=C(N/N=C/c1cccc(F)c1)c1ccc(NCc2nc3ccccc3[nH]2)cc1", "note": "[6i, (E)-4-(((1H-benzo[d]imidazol-2-yl)methyl)amino)-N′-(3-fluorobenzylidene)benzohydrazide]", "values": [
      {"measurement": "IC50", "setting": "[1]; Homo sapiens, HCT-116, MTT, mean ± SD of triplicate", "value": "13.4 ± 1.2", "unit": "µM"},
      {"measurement": "SI (Selectivity Index) HCT-116", "setting": "[1]; IC50 of WI-38 / IC50 of HCT-116", "value": 4.20},
      {"measurement": "IC50", "setting": "[2]; Homo sapiens, HepG2, MTT, mean ± SD of triplicate", "value": "9.39 ± 0.8", "unit": "µM"},
      {"measurement": "SI (Selectivity Index) HepG2", "setting": "[2]; IC50 of WI-38 / IC50 of HepG2", "value": 6.01},
      {"measurement": "IC50", "setting": "[3]; Homo sapiens, MCF7, MTT, mean ± SD of triplicate", "value": "11.6 ± 0.9", "unit": "µM"},
      {"measurement": "SI (Selectivity Index) MCF-7", "setting": "[3]; IC50 of WI-38 / IC50 of MCF-7", "value": 4.85},
      {"measurement": "IC50", "setting": "[4]", "value": "56.5 ± 3", "unit": "µM"},
      {"measurement": "IC50", "setting": "VEGFR2", "value": "0.1722 ± 6e-06", "unit": "µM"},
      {"measurement": "IC50", "setting": "HDAC1", "value": "0.0966 ± 3e-06", "unit": "µM"},
      {"measurement": "Cell Cycle Distribution Index (CDI)", "setting": "HepG2 cells [5]; CDI = (G2/M + S)/(G0-G1), HepG2, IC50 concentration, 24 h, control 0.91", "value": 0.39},
      {"measurement": "DNA Content (%) %G2/M", "setting": "HepG2 cells [5]; HepG2 cells treated at IC50 concentration for 24 h, control 12.84", "value": 2.68, "unit": "%"},
      {"measurement": "DNA Content (%) %S", "setting": "HepG2 cells [5]; HepG2 cells treated at IC50 concentration for 24 h, control 34.77", "value": 25.19, "unit": "%"},
      {"measurement": "DNA Content (%) %G0-G1", "setting": "HepG2 cells [5]; HepG2 cells treated at IC50 concentration for 24 h, control 52.39", "value": 72.13, "unit": "%"},
      {"measurement": "Apoptosis Late", "setting": "HepG2 cells [6]; control 0.21", "value": 9.98, "unit": "%"},
      {"measurement": "Apoptosis Early", "setting": "HepG2 cells [6]; control 0.61", "value": 22.07, "unit": "%"},
      {"measurement": "Necrosis", "setting": "HepG2 cells [6]; control 1.6", "value": 4.02, "unit": "%"},
      {"measurement": "Alive Cell (%)", "setting": "HepG2 cells [6]; control 97.58", "value": 63.93, "unit": "%"},
      {"measurement": "Protein Expression Caspase-3", "setting": "caspase-3", "value": "388.497 ± 15.09", "unit": "pg/mL"},
      {"measurement": "Protein Expression Bax", "setting": "Bax; ELISA, control 71.075 ± 2.762, mean ± SD of triplicate", "value": "513.731 ± 19.96", "unit": "pg/mL"},
      {"measurement": "Protein Expression Bax (Folds)", "setting": "Bax; relative to control (1)", "value": 7.22, "unit": "Folds"},
      {"measurement": "Bcl-2 level, fold lower compared with the control", "setting": "Bcl-2", "value": 7.5, "unit": "fold"},
      {"measurement": "Protein Expression Bcl-2", "setting": "Bcl-2; ELISA, control 15.668 ± 0.53, mean ± SD of triplicate", "value": "2.073 ± 0.07", "unit": "pg/mL"},
      {"measurement": "Protein Expression Bcl-2 (Folds)", "setting": "Bcl-2; relative to control (1)", "value": 0.132, "unit": "Folds"},
      {"measurement": "IC50", "setting": "[7]", "value": "7.82 to 10.2", "unit": "µM"},
      {"measurement": "IC50", "setting": "mTOR", "value": "0.152 ± 5e-06", "unit": "µM"},
      {"measurement": "IC50", "setting": "EGFR", "value": "0.0301 ± 3e-05", "unit": "µM"},
      {"measurement": "IC50", "setting": "Her2", "value": "0.0283 ± 1e-06", "unit": "µM"},
      {"measurement": "IC50", "setting": "CDK2", "value": "0.364 ± 1.1e-05", "unit": "µM"},
      {"measurement": "IC50", "setting": "AURKC", "value": "0.0745 ± 3e-06", "unit": "µM"}
    ]}
  ]
}
